Entries after “also recorded” stand apart in the source; their conditions may differ.
Assays:
[1] = tested on: CAIX-expressing SK-RC-52 tumors; assay: Biodistribution in mice bearing SK-RC-52 xenografts; format: in vivo; settings: 740 kBq i.v.
Description: Animal experiments were performed in accordance with protocols approved by the Johns Hopkins Animal Care and Use Committee (ACUC). Six-week-old female NOD/SCID mice were purchased from the Animal Resource Core of the Sidney Kimmel Comprehensive Cancer Center of Johns Hopkins and were subcutaneously injected in the lower left flank or upper right flank with 1×10^6 SK-RC-52 cells in RPMI 1640 GlutaMAX™ media (Life Technologies, Frederick, Md.) supplemented with 1% fetal bovine serum (FBS). Mice were monitored for tumor size and used for SPECT/CT imaging when the size of the tumor reached 100 mm^3.
Mice bearing SK-RC-52 xenografts at lower left flank were injected intravenously with 740 kBq (20 μCi) of [^111In]XYIMSR-01, or [^177Lu]XYIMSR-01 in 200 μL of PBS. For competitive blocking, same tumor bearing mice were injected with 740 kBq (20 μCi) of [^111In]XYIMSR-01 and 200 nmole of 8 in 200 μL of PBS. At 1 h, 4 h, 8 h, 24 h and 48 h post-injection, mice were sacrificed by cervical dislocation and the blood was immediately collected by cardiac puncture. Heart, lungs, pancreas, spleen, fat, brain, muscle, small intestines, liver, stomach, kidney, urinary bladder, and tumor were collected. Each organ was weighed and the tissue radioactivity was measured with an automated gamma counter (1282 Compugamma CS, Pharmacia/LKBNuclear, Inc., Mt. Waverly, Vic. Australia). The percentage of injected dose per gram of tissue (% ID/g) was calculated by comparison with samples of a standard dilution of the initial dose. All measurements were corrected for radioactive decay.
Data were expressed as mean±standard deviation (SD). Prism software (GraphPAD, San Diego, Calif.) was used to determine statistical significance. Statistical significance was calculated using a paired t test. P-values <0.0001 were considered significant.
Mice bearing SK-RC-52 xenografts within the lower left flank were injected intravenously with 740 kBq (20 μCi) of [Al^18F]XYIMSR-04 in 200 μL of PBS. At specific 1 hour time point mentioned in the paper, mice (n=5) were sacrificed by cervical dislocation and the blood was immediately collected by cardiac puncture. Heart, lungs, pancreas, spleen, fat, brain, muscle, small intestines, liver, bone, stomach, kidney, urinary bladder, and tumor were collected. Each organ was weighed and the tissue radioactivity was measured with an automated gamma counter (1282 Compugamma CS, Pharmacia/LKBNuclear, Inc., Mt. Waverly, Vic. Australia). The percentage of injected dose per gram of tissue (% ID/g) was calculated by comparison with samples of a standard dilution of the initial dose. All measurements were corrected for radioactive decay. Data were expressed as mean±standard deviation (SD). Prism software (GraphPAD, San Diego, Calif.) was used to determine statistical significance. Statistical significance was calculated using a paired t test. P-values <0.0001 were considered significant.
Mice bearing SK-RC-52 xenografts within the upper right flank were injected intravenously with 740 kBq (20 μCi) of [^64Cu]XYIMSR-06 in 200 μL of PBS. For in vivo competition (binding specificity) studies, tumor-bearing mice were injected with 740 kBq (20 μCi) of [^64Cu]XYIMSR-06 and 200 nmole of 8 in 200 μL of PBS concurrently. At specific times after injection (1 h, 4 h, 8 h and 24 h), mice (n=5) were sacrificed by cervical dislocation with blood immediately collected by cardiac puncture. Heart, lungs, pancreas, spleen, fat, brain, muscle, small intestines, liver, stomach, kidney, urinary bladder, and tumor were also collected. Each organ was weighed and the tissue radioactivity was measured with an automated gamma counter (1282 Compugamma CS, Pharmacia/LKBNuclear, Inc., Mt. Waverly, Vic. Australia). The percentage of injected dose per gram of tissue (% ID/g) was calculated by comparison with samples of a standard dilution of the initial dose. All measurements were corrected for radioactive decay. Data were expressed as mean±standard deviation (SD). […]

CAIX = target: T1, CAIX (Homo sapiens, UniProt Q16790); assay: CAIX specific uptake in vitro; format: cell-based
T1 construct: host or cells: ccRCC tumours in patients

SK-RC-52 xenografts = assay: Radio-therapy of mice bearing SK-RC-52 xenografts; format: in vivo; settings: 11.1 MBq and 18.5 MBq i.v., n=4

CC(CCC(=O)N[C@@H](CC(=O)N[C@@H](CC(=O)N[C@@H](CCCCn1cc(CCCC(=O)Nc2nnc(S(N)(=O)=O)s2)nn1)C(=O)NCCOCCOCCNC(=O)CN1CCN(CC(=O)[O-])CCN(CC(=O)[O-])CCN(CC(=O)[O-])CC1)C(=O)O)C(=O)O)(c1ccc(O)cc1)c1ccc(O)cc1.[177Lu+3] [[^177Lu]XYIMSR-01]
Biodistribution Bladder ([1]; 1 h post-injection): 26.55 % ID/g | Biodistribution Blood ([1]; 1 h post-injection): 0.55 % ID/g | Biodistribution Brain ([1]; 1 h post-injection): 0.49 % ID/g | Biodistribution Fat ([1]; 1 h post-injection): 1.07 % ID/g | Biodistribution Heart ([1]; 1 h post-injection): 3.59 % ID/g | Biodistribution Kidney ([1]; 1 h post-injection): 40.77 % ID/g | Biodistribution Liver ([1]; 1 h post-injection): 4.15 % ID/g | Biodistribution Lung ([1]; 1 h post-injection): 23.72 % ID/g | Biodistribution Muscle ([1]; 1 h post-injection): 1.42 % ID/g | Biodistribution Pancreas ([1]; 1 h post-injection): 2.03 % ID/g | Biodistribution Small intestine ([1]; 1 h post-injection): 6.11 % ID/g | Biodistribution Spleen ([1]; 1 h post-injection): 0.29 % ID/g | Biodistribution Stomach ([1]; 1 h post-injection): 12.20 % ID/g | Biodistribution Tumor ([1]; 1 h post-injection): 26.91 % ID/g | Tumor/Blood ratio ([1]; 1 h post-injection): 47.9 | Tumor/Kidney ratio ([1]; 1 h post-injection): 0.6 | Tumor/Muscle ratio ([1]; 1 h post-injection): 18.8 | Biodistribution Bladder ([1]; 4 h post-injection): 6.60 % ID/g | Biodistribution Blood ([1]; 4 h post-injection): 0.18 % ID/g | Biodistribution Brain ([1]; 4 h post-injection): 0.33 % ID/g | Biodistribution Fat ([1]; 4 h post-injection): 0.56 % ID/g | Biodistribution Heart ([1]; 4 h post-injection): 1.52 % ID/g | Biodistribution Kidney ([1]; 4 h post-injection): 19.17 % ID/g | Biodistribution Liver ([1]; 4 h post-injection): 1.79 % ID/g | Biodistribution Lung ([1]; 4 h post-injection): 10.35 % ID/g | Biodistribution Muscle ([1]; 4 h post-injection): 0.65 % ID/g | Biodistribution Pancreas ([1]; 4 h post-injection): 0.99 % ID/g | Biodistribution Small intestine ([1]; 4 h post-injection): 2.64 % ID/g | Biodistribution Spleen ([1]; 4 h post-injection): 0.15 % ID/g | Biodistribution Stomach ([1]; 4 h post-injection): 6.06 % ID/g | Biodistribution Tumor ([1]; 4 h post-injection): 26.28 % ID/g | Tumor/Blood ratio ([1]; 4 h post-injection): 150.3 | Tumor/Kidney ratio ([1]; 4 h post-injection): 1.4 | Tumor/Muscle ratio ([1]; 4 h post-injection): 43.7 | Biodistribution Bladder ([1]; 8 h post-injection): 6.00 % ID/g | Biodistribution Blood ([1]; 8 h post-injection): 0.16 % ID/g | Biodistribution Brain ([1]; 8 h post-injection): 0.44 % ID/g | Biodistribution Fat ([1]; 8 h post-injection): 0.46 % ID/g | Biodistribution Heart ([1]; 8 h post-injection): 1.49 % ID/g | Biodistribution Kidney ([1]; 8 h post-injection): 18.99 % ID/g | Biodistribution Liver ([1]; 8 h post-injection): 1.87 % ID/g | Biodistribution Lung ([1]; 8 h post-injection): 8.87 % ID/g | Biodistribution Muscle ([1]; 8 h post-injection): 0.47 % ID/g | Biodistribution Pancreas ([1]; 8 h post-injection): 1.03 % ID/g | Biodistribution Small intestine ([1]; 8 h post-injection): 3.67 % ID/g | Biodistribution Spleen ([1]; 8 h post-injection): 0.29 % ID/g | Biodistribution Stomach ([1]; 8 h post-injection): 6.15 % ID/g | Biodistribution Tumor ([1]; 8 h post-injection): 27.48 % ID/g | Tumor/Blood ratio ([1]; 8 h post-injection): 178.6 | Tumor/Kidney ratio ([1]; 8 h post-injection): 1.5 | Tumor/Muscle ratio ([1]; 8 h post-injection): 65.0 | Biodistribution Bladder ([1]; 24 h + block (200 nmole of 8)): 0.73 % ID/g | Biodistribution Blood ([1]; 24 h + block (200 nmole of 8)): 0.04 % ID/g | Biodistribution Brain ([1]; 24 h + block (200 nmole of 8)): 0.04 % ID/g | Biodistribution Fat ([1]; 24 h + block (200 nmole of 8)): 0.03 % ID/g | Biodistribution Heart ([1]; 24 h + block (200 nmole of 8)): 0.08 % ID/g | Biodistribution Kidney ([1]; 24 h + block (200 nmole of 8)): 1.54 % ID/g | Biodistribution Liver ([1]; 24 h + block (200 nmole of 8)): 0.46 % ID/g | Biodistribution Lung ([1]; 24 h + block (200 nmole of 8)): 0.73 % ID/g | Biodistribution Muscle ([1]; 24 h + block (200 nmole of 8)): 0.03 % ID/g | Biodistribution Pancreas ([1]; 24 h + block (200 nmole of 8)): 0.05 % ID/g | Biodistribution Small intestine ([1]; 24 h + block (200 nmole of 8)): 0.18 % ID/g | Biodistribution Spleen ([1]; 24 h + block (200 nmole of 8)): 0.38 % ID/g | Biodistribution Stomach ([1]; 24 h + block (200 nmole of 8)): 0.21 % ID/g | Biodistribution Tumor ([1]; 24 h + block (200 nmole of 8)): 1.70 % ID/g | Tumor/Blood ratio ([1]; 24 h + block (200 nmole of 8)): 42.0 | Tumor/Kidney ratio ([1]; 24 h + block (200 nmole of 8)): 1.4 | Tumor/Muscle ratio ([1]; 24 h + block (200 nmole of 8)): 58.6 | Biodistribution Bladder ([1]; 24 h post-injection): 1.29 % ID/g | Biodistribution Blood ([1]; 24 h post-injection): 0.02 % ID/g | Biodistribution Brain ([1]; 24 h post-injection): 0.28 % ID/g | Biodistribution Fat ([1]; 24 h post-injection): 0.05 % ID/g | Biodistribution Heart ([1]; 24 h post-injection): 0.28 % ID/g | Biodistribution Kidney ([1]; 24 h post-injection): 3.11 % ID/g | Biodistribution Liver ([1]; 24 h post-injection): 0.47 % ID/g | Biodistribution Lung ([1]; 24 h post-injection): 1.48 % ID/g | Biodistribution Muscle ([1]; 24 h post-injection): 0.10 % ID/g | Biodistribution Pancreas ([1]; 24 h post-injection): 0.16 % ID/g | Biodistribution Small intestine ([1]; 24 h post-injection): 0.96 % ID/g | Biodistribution Spleen ([1]; 24 h post-injection): 0.20 % ID/g | Biodistribution Stomach ([1]; 24 h post-injection): 1.02 % ID/g | Biodistribution Tumor ([1]; 24 h post-injection): 12.51 % ID/g | Biodistribution Bladder ([1]; 48 h + block (200 nmole of 8)): 0.28 % ID/g | Biodistribution Blood ([1]; 48 h + block (200 nmole of 8)): 0.04 % ID/g | Biodistribution Brain ([1]; 48 h + block (200 nmole of 8)): 0.02 % ID/g | Biodistribution Fat ([1]; 48 h + block (200 nmole of 8)): 0.02 % ID/g | Biodistribution Heart ([1]; 48 h + block (200 nmole of 8)): 0.04 % ID/g | Biodistribution Kidney ([1]; 48 h + block (200 nmole of 8)): 0.39 % ID/g | Biodistribution Liver ([1]; 48 h + block (200 nmole of 8)): 0.23 % ID/g | Biodistribution Lung ([1]; 48 h + block (200 nmole of 8)): 0.18 % ID/g | Biodistribution Muscle ([1]; 48 h + block (200 nmole of 8)): 0.01 % ID/g | Biodistribution Pancreas ([1]; 48 h + block (200 nmole of 8)): 0.02 % ID/g | Biodistribution Small intestine ([1]; 48 h + block (200 nmole of 8)): 0.05 % ID/g | Biodistribution Spleen ([1]; 48 h + block (200 nmole of 8)): 0.15 % ID/g | Biodistribution Stomach ([1]; 48 h + block (200 nmole of 8)): 0.09 % ID/g | Biodistribution Tumor ([1]; 48 h + block (200 nmole of 8)): 0.65 % ID/g | Tumor/Blood ratio ([1]; 48 h + block (200 nmole of 8)): 42.7 | Tumor/Kidney ratio ([1]; 48 h + block (200 nmole of 8)): 1.7 | Tumor/Muscle ratio ([1]; 48 h + block (200 nmole of 8)): 62.5 | Biodistribution Bladder ([1]; 48 h post-injection): 0.20 % ID/g | Biodistribution Blood ([1]; 48 h post-injection): 0.04 % ID/g | Biodistribution Brain ([1]; 48 h post-injection): 0.17 % ID/g | Biodistribution Fat ([1]; 48 h post-injection): 0.03 % ID/g | Biodistribution Heart ([1]; 48 h post-injection): 0.12 % ID/g | Biodistribution Kidney ([1]; 48 h post-injection): 0.76 % ID/g | Biodistribution Liver ([1]; 48 h post-injection): 0.19 % ID/g | Biodistribution Lung ([1]; 48 h post-injection): 0.90 % ID/g | Biodistribution Muscle ([1]; 48 h post-injection): 0.04 % ID/g | Biodistribution Pancreas ([1]; 48 h post-injection): 0.06 % ID/g | Biodistribution Small intestine ([1]; 48 h post-injection): 0.20 % ID/g | Biodistribution Spleen ([1]; 48 h post-injection): 0.13 % ID/g | Biodistribution Stomach ([1]; 48 h post-injection): 0.35 % ID/g | Biodistribution Tumor ([1]; 48 h post-injection): 5.82 % ID/g | Tumor/Blood ratio ([1]; 48 h post-injection): 200.2 | Tumor/Kidney ratio ([1]; 48 h post-injection): 7.1 | Tumor/Muscle ratio ([1]; 48 h post-injection): 141.5 | Uptake in vitro (CAIX): CAIX specific uptake | Tumor growth compared with control non-treated mice (SK-RC-52 xenografts): Delays in tumor growth; also recorded: significant therapeutic effect in controlling tumor growth

Reference: patent US10857246B2, “Nuclear imaging and radiotherapeutics agents targeting carbonic anhydrase IX and uses thereof” (THE JOHNS HOPKINS UNIVERSITY, priority 2015, dated 2020)
